From patent US6544991B2, “Compositions and methods for treating bacterial infections” (priority 2000, dated 2003)
Where two headings read alike, the source gives them in different places.

Assays:
VRSA strains = test: MIC by agar dilution or microbroth dilution method (NCCLS), VRSA strains; format: cell-based, Staph. aureus; details: VRSA strains (n = 10)
Procedure, shortened: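 Clinical isolates from human infections, including VRSA strains from five countries, with S. aureus 29213 as QC strain. MICs by NCCLS agar dilution or microbroth dilution; combination synergy by agar dilution checkerboard, expressed as FIC index from MIC in combination over MIC alone.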

Staph. aureus 29213 = test: MIC, quality control strain; format: cell-based; details: for MIC: Staphylococcus aureus
Procedure, shortened: (§1)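 MICs determined by NCCLS agar dilution or microbroth dilution on clinical isolates, with Staph. aureus 29213 as quality control strain. Synergy by agar dilution checkerboard; FIC computed as MIC of drug in combination divided by MIC alone, summed into FIC index.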

MRSA strains = test: MIC by agar dilution or microbroth dilution method (NCCLS); format: cell-based, Staph. aureus; details: for MIC: Staphylococcus aureus
Procedure, shortened: as §1

CN[C@H](CC(C)C)C(=O)N[C@H]1C(=O)N[C@@H](CC(N)=O)C(=O)N[C@H]2C(=O)N[C@H]3C(=O)N[C@H](C(=O)N[C@H](C(=O)O)c4cc(O)cc(O)c4-c4cc3ccc4O)[C@H](O)c3ccc(c(Cl)c3)Oc3cc2cc(c3O[C@@H]2O[C@H](CO)[C@@H](O)[C@H](O)[C@H]2O[C@H]2C[C@](C)(N)[C@H](O)[C@H](C)O2)Oc2ccc(cc2Cl)[C@H]1O [VCM, vancomycin]
0.5 µg/mL: MIC (Staph. aureus 29213; ATCC29213, read-out: MIC Values, strain ATCC29213, control sample (Ex. 37)) | MIC (MRSA strains; MRSA, read-out: MIC Values, strain H1) | MIC (MRSA strains; MRSA, read-out: MIC Values, strain JSCC 431) | MIC (MRSA strains; MRSA, read-out: MIC Values, strain JSCC 551) | MIC (MRSA strains; MRSA, read-out: MIC Values, strain JSCC 601) | MIC (MRSA strains; MRSA, read-out: MIC Values, strain JSCC 731) | MIC (MRSA strains; MRSA, read-out: MIC Values, strain JSCC 740) | MIC (MRSA strains; MRSA, read-out: MIC Values, strain JSCC 751) | MIC (MRSA strains; MRSA, read-out: MIC Values, strain JSCC 763) | MIC (MRSA strains; MRSA, read-out: MIC Values, strain N315)
1 µg/mL: MIC (Staph. aureus 29213; ATCC29213, read-out: MIC Values, strain ATCC 29213, control sample (Ex. 26)) | MIC (MRSA strains; MRSA / NCTC 10442, read-out: MIC Values, strain NCTC 10442) | MIC (MRSA strains; MRSA, read-out: MIC Values, strain 85/2082) | MIC (MRSA strains; MRSA, read-out: MIC Values, strain JSCC 340) | MIC (MRSA strains; MRSA, read-out: MIC Values, strain JSCC 351) | MIC (MRSA strains; MRSA, read-out: MIC Values, strain JSCC 363) | MIC (MRSA strains; MRSA, read-out: MIC Values, strain JSCC 381) | MIC (MRSA strains; MRSA, read-out: MIC Values, strain JSCC 390) | MIC (MRSA strains; MRSA, read-out: MIC Values, strain JSCC 401) | MIC (MRSA strains; MRSA, read-out: MIC Values, strain JSCC 413) | MIC (MRSA strains; MRSA, read-out: MIC Values, strain JSCC 440) | MIC (MRSA strains; MRSA, read-out: MIC Values, strain JSCC 451) | MIC (MRSA strains; MRSA, read-out: MIC Values, strain JSCC 463) | MIC (MRSA strains; MRSA, read-out: MIC Values, strain JSCC 481) | MIC (MRSA strains; MRSA, read-out: MIC Values, strain JSCC 490) | MIC (MRSA strains; MRSA, read-out: MIC Values, strain JSCC 501) | MIC (MRSA strains; MRSA, read-out: MIC Values, strain JSCC 513) | MIC (MRSA strains; MRSA, read-out: MIC Values, strain JSCC 531) | MIC (MRSA strains; MRSA, read-out: MIC Values, strain JSCC 540) | MIC (MRSA strains; MRSA, read-out: MIC Values, strain JSCC 563) | MIC (MRSA strains; MRSA, read-out: MIC Values, strain JSCC 581 (lacks the mecA gene)) | MIC (MRSA strains; MRSA, read-out: MIC Values, strain JSCC 590 (lacks the mecA gene)) | MIC (MRSA strains; MRSA, read-out: MIC Values, strain JSCC 640) | MIC (MRSA strains; MRSA, read-out: MIC Values, strain JSCC 651) | MIC (MRSA strains; MRSA, read-out: MIC Values, strain JSCC 663) | MIC (MRSA strains; MRSA, read-out: MIC Values, strain JSCC 681) | MIC (MRSA strains; MRSA, read-out: MIC Values, strain JSCC 690) | MIC (MRSA strains; MRSA, read-out: MIC Values, strain JSCC 701) | MIC (MRSA strains; MRSA, read-out: MIC Values, strain JSCC 870) | MIC (MRSA strains; MRSA, read-out: MIC Values, strain Mu 3)
2 to 4 mg/L: MICs Range (VRSA strains)
0.5 to 2 mg/L: MICs Range (MRSA strains; MRSA strains (n = 38))
4 µg/mL: MIC (MRSA strains; MRSA, read-out: MIC Values, strain AMC 11094) | MIC (MRSA strains; MRSA, read-out: MIC Values, strain HIP 5827) | MIC (MRSA strains; MRSA, read-out: MIC Values, strain HIP 5836) | MIC (MRSA strains; MRSA, read-out: MIC Values, strain HIP 7737) | MIC (MRSA strains; MRSA, read-out: MIC Values, strain Mu 50)
2 µg/mL: MIC (MRSA strains; MRSA, read-out: MIC Values, strain 99.3700W) | MIC (MRSA strains; MRSA, read-out: MIC Values, strain 99.3759V) | MIC (MRSA strains; MRSA, read-out: MIC Values, strain BM12612(new)) | MIC (MRSA strains; MRSA, read-out: MIC Values, strain HIP 6297) | MIC (MRSA strains; MRSA, read-out: MIC Values, strain JSCC 713) | MIC (MRSA strains; MRSA, read-out: MIC Values, strain JSCC 781) | MIC (MRSA strains; MRSA, read-out: MIC Values, strain LIM 2)

teicoplanin
16 µg/mL: MIC Values (MRSA strains; strain 99.3759V) | MIC Values (MRSA strains; strain AMC 11094) | MIC Values (MRSA strains; strain HIP 5827) | MIC Values (MRSA strains; strain HIP 7737) | MIC Values (MRSA strains; strain Mu 50)
0.5 µg/mL: MIC Values (MRSA strains; strain JSCC 431) | MIC Values (MRSA strains; strain JSCC 681) | MIC Values (MRSA strains; strain N315)
0.5 to 4 mg/L: MICs Range (MRSA strains; MRSA strains (n = 38))
8 µg/mL: MIC Values (MRSA strains; strain HIP 5836) | MIC Values (MRSA strains; strain JSCC 581 (lacks the mecA gene)) | MIC Values (MRSA strains; strain JSCC 590 (lacks the mecA gene)) | MIC Values (MRSA strains; strain LIM 2) | MIC Values (MRSA strains; strain Mu 3)
4 µg/mL: MIC Values (MRSA strains; strain 99.3700W) | MIC Values (MRSA strains; strain BM12612(new)) | MIC Values (MRSA strains; strain H1) | MIC Values (MRSA strains; strain HIP 6297) | MIC Values (MRSA strains; strain JSCC 781)
4 to 16 mg/L: MICs Range (VRSA strains)
1 µg/mL: MIC Values (Staph. aureus 29213; strain ATCC 29213, control sample (Ex. 26)) | MIC Values (Staph. aureus 29213; strain ATCC29213, control sample (Ex. 37)) | MIC Values (MRSA strains; strain 85/2082) | MIC Values (MRSA strains; strain JSCC 340) | MIC Values (MRSA strains; strain JSCC 351) | MIC Values (MRSA strains; strain JSCC 363) | MIC Values (MRSA strains; strain JSCC 381) | MIC Values (MRSA strains; strain JSCC 390) | MIC Values (MRSA strains; strain JSCC 463) | MIC Values (MRSA strains; strain JSCC 513) | MIC Values (MRSA strains; strain JSCC 531) | MIC Values (MRSA strains; strain JSCC 540) | MIC Values (MRSA strains; strain JSCC 551) | MIC Values (MRSA strains; strain JSCC 601) | MIC Values (MRSA strains; strain JSCC 640) | MIC Values (MRSA strains; strain JSCC 663) | MIC Values (MRSA strains; strain JSCC 690) | MIC Values (MRSA strains; strain JSCC 701) | MIC Values (MRSA strains; strain JSCC 731) | MIC Values (MRSA strains; strain JSCC 740) | MIC Values (MRSA strains; strain JSCC 751) | MIC Values (MRSA strains; strain JSCC 763) | MIC Values (MRSA strains; strain JSCC 870)
1 mg/L: MICs 50% (MRSA strains; MRSA strains (n = 38))
2 mg/L: MICs 90% (MRSA strains; MRSA strains (n = 38))
2 µg/mL: MIC Values (MRSA strains; strain JSCC 401) | MIC Values (MRSA strains; strain JSCC 413) | MIC Values (MRSA strains; strain JSCC 440) | MIC Values (MRSA strains; strain JSCC 451) | MIC Values (MRSA strains; strain JSCC 481) | MIC Values (MRSA strains; strain JSCC 490) | MIC Values (MRSA strains; strain JSCC 501) | MIC Values (MRSA strains; strain JSCC 563) | MIC Values (MRSA strains; strain JSCC 651) | MIC Values (MRSA strains; strain JSCC 713) | MIC Values (MRSA strains; strain NCTC 10442)
